Experiments:
HeLa Cells = test: Transfection of HeLa cells with DOTMA/DOPE/peptide and eGFP plasmid, fluorescent plate reader; format: cell-based; details: DOTMA/DOPE 1:1 plus peptide with RRRRRRRRRRRR (SEQ ID NO: 109) at n terminus; EF1Alpha eGFP plasmid; 0.01 mL complex; 42 hours
Protocol: (§1) Cells were plated to so that on the day of transfection the cells were 60-70% confluent in 96 well tissue culture plates. A DOMTA/DOPE Lipid solution (1:1 molar ratio) at 2 mg/mL in water were mixed with an equal volume of surface ligand peptides that had the nucleic acid binding moiety RRRRRRRRRRRR (SEQ ID NO: 109) covalently linked to the n terminus of each peptide during peptide synthesis. Peptides were at 2 mg/mL in water. The DOTMA/DOPE and the surface ligand peptide solution the transfection reagent was diluted 1 to 1 (v/v) in water. DOMTA/DOPE/PEPTIDE solutions were added to 0.1 mL of a plasmid DNA solution (EF1Alpha eGFP plasmid) at 5 μg/mL in OptiMEM. Lipofectamine 2000 was obtained from Life Technologies.
(§2) All solutions were at room temperature. A volume of 0.2 mL of a 5 μg/mL solution of DNA was aliquoted into each well of a non-tissue cultured treated plate. 4.0 μL of transfection reagents were added to DNA solutions respectively. The transfection reagent and DNA solution was mixed by pipetting up and down twice. Transfection complexes were formed for 10 minutes. After 10 minutes, 0.01 or 0.02 mL of the transfection complex was added to cells. HuVEC, HeLa, human adult keratinocytes, human primary adult fibroblast, and rat cortical neurons all respectively received 0.01 mL of the tramsfectopm complex. Human skeletal muscle cells, mouse C2C12 cells, Jurkat, and THP-1 cells received 0.02 mL of the transfection complex. Cells were incubated for 42 hours at 37° C. at 5% CO2. Plates were read on a fluorescent plate reader. Cells were also examined visually under a microscope to assess the extent of transfection (in terms of the percent of cells transfected) with a fluorescent microscope. Other modes of analysis, for example quantification with B-galactosidase or luciferase reports plasmids can also be used. […] Surface ligand that caused increase expression of GFP over the lipid DOTMA with no surface ligand were considered to enhance transfection or had higher % cells transfected were considered to enhance transfection. Peptides that gave greater than 2 fold enhancement are noted in bold and could be further optimized by adding different transfection enhancers or could be used with different cationic lipids or polymers.

Jurkat Cells = test: Transfection of Jurkat cells with DOTMA/DOPE/peptide and eGFP plasmid, fluorescent plate reader; format: cell-based; details: DOTMA/DOPE 1:1 plus peptide with RRRRRRRRRRRR (SEQ ID NO: 109) at n terminus; EF1Alpha eGFP plasmid; 0.02 mL complex; 42 hours
Protocol: as §1, §2

HuVec Cells = test: Transfection of HuVec cells with DOTMA/DOPE/peptide and eGFP plasmid, fluorescent plate reader; format: cell-based; details: DOTMA/DOPE 1:1 plus peptide with RRRRRRRRRRRR (SEQ ID NO: 109) at n terminus; EF1Alpha eGFP plasmid; 0.01 mL complex; 42 hours
Protocol: as §1, §2

NL-1 iPS Cells = test: Transfection of NL-1 iPS cells with DOTMA/DOPE/peptide and eGFP plasmid, fluorescent plate reader; format: cell-based; details: DOTMA/DOPE 1:1 plus peptide with RRRRRRRRRRRR (SEQ ID NO: 109) at n terminus; EF1Alpha eGFP plasmid; 42 hours
Protocol: as §1, §2

Human Fibroblast Cells = test: Transfection of human fibroblast cells with DOTMA/DOPE/peptide and eGFP plasmid, fluorescent plate reader; format: cell-based; details: DOTMA/DOPE 1:1 plus peptide with RRRRRRRRRRRR (SEQ ID NO: 109) at n terminus; EF1Alpha eGFP plasmid; 0.01 mL complex; 42 hours
Protocol: as §1, §2

C2C12 Cells = test: Transfection of C2C12 cells with DOTMA/DOPE/peptide and eGFP plasmid, fluorescent plate reader; format: cell-based, mouse; details: DOTMA/DOPE 1:1 plus peptide with RRRRRRRRRRRR (SEQ ID NO: 109) at n terminus; EF1Alpha eGFP plasmid; 0.02 mL complex; 42 hours
Protocol: as §1, §2

Substance | RF (Relative Fluorescence) of Transfection of HeLa Cells (HeLa Cells) | RF (Relative Fluorescence) of Transfection of Jurkat Cells (Jurkat Cells) | RF (Relative Fluorescence) of Transfection of HuVec Cells (HuVec Cells) | RF (Relative Fluorescence) of Transfection of NL-1 iPS Cells (NL-1 iPS Cells) | RF (Relative Fluorescence) of Transfection of Human Fibroblast Cells (Human Fibroblast Cells) | RF (Relative Fluorescence) of Transfection of C2C12 Cells (C2C12 Cells)
371 (GPAGKDGEAGAQG; Peptidic transfection agent) [compound 371] | 5180 | 6093 | 10669 | 17587 | 4584 | 983
235 (KARSFNVNQLLQD; Peptidic transfection agent) [compound 235] |  |  | 26940 |  |  | 
107 (RRRRRRRR; Peptidic transfection agent) [compound 107] | 75 |  |  | 1441 |  | 
363 (LAGSCLARFSTM; Peptidic transfection agent) [compound 363] | 2590 | 2432 | 1383 | 4189 | 3008 | 1080
502 (RNIAEIIKDI; Peptidic transfection agent) [compound 502] |  |  |  |  |  | 2589
224 (KPDVRSYTITG; Peptidic transfection agent) [compound 224] | 5559 | 13170 | 15945 | 25209 | 5995 | 1469
383 (TAG; Peptidic transfection agent) [compound 383] | 8012 | 14910 | 20267 | 21983 | 5896 | 1876
234 (YEKPGSPPREVVPRPRPGV; Peptidic transfection agent) [compound 234] | 3867 | 5441 | 13956 | 14410 | 4145 | 681

Reference: patent publication US11085056B2, “Transfection complexes and methods of using the same” (MOLECULAR TRANSFER, INC., priority 2015, dated 2021)
